Values of other authors, collected in patent US8883846B2, “Synthesis of bicyclic compounds and method for their use as therapeutic agents” (priority 2010, dated 2014).

Test system: influenza A H1N1 viruses, neuraminidase mutation Q136K
Conditions: Australian and South East Asian influenza A H1N1 viruses; cited from earlier work

For `CCC(CC)[C@H](NC(C)=O)[C@@H]1[C@H](O)[C@@H](C(=O)O)C[C@H]1N=C(N)N` [peramivir], the reduction in susceptibility is listed as 70 fold.

In the case of `CC(=O)N[C@H]1[C@H]([C@H](O)[C@H](O)CO)OC(C(=O)O)=C[C@@H]1N=C(N)N` [zanamivir], the reduction in susceptibility is given as 300 fold.
